In one test the target is T1, KRas^G12A (Homo sapiens, UniProt P01116, G12A).
T1 construct: corresponding to amino acids 1-169, produced at Accelegan Inc; biotin (biotinylated); purchased Accelegan Inc
Put plainly: KRas Binding Assay (TR-FRET displacement), KRas G12A. As to conditions: TR-FRET tracer displacement. On the procedure: (§1) This Example illustrates that exemplary compounds of the present invention bind to KRas and are capable of displacing a labeled tracer ligand occupying the KRas binding site. KRas^WT, KRas^G12A, KRas^G12C, KRas^G12D, KRas^G12R, KRas^G12S, KRas^G12V, KRas^G13D, or KRas^Q61H was used in the assay.
(§2) The ability of a compound to bind to KRas was measured using a TR-FRET displacement assay. Biotinylated KRas (corresponding to amino acids 1-169, produced at Accelegan Inc.) was incubated with custom made Cy5 labelled tracer, terbium streptavidin (Cisbio Inc.) and compound (1% DMSO final) in buffer (50 mM HEPES, pH 7.5, 5 mM MgCl2, 0.005% Tween-20 and 1 mM DTT). After a 60-minute incubation at room temperature, the reaction was measured using a BMG LABTECH CLARIO star Plus via TR-FRET. […] The POC values were fit to a 4-parameter IC50 equation and the IC50 value reported.
(In general: Time-resolved FRET reads energy transfer from a long-lived donor to a nearby acceptor.)

In the next test the target is T2, KRas^Q61H (Homo sapiens, UniProt P01116, Q61H).
T2 construct: corresponding to amino acids 1-169, produced at Accelegan Inc; biotin (biotinylated); purchased Accelegan Inc
T2 sequence (P01116 1-169 isoform P01116-2 Q61H): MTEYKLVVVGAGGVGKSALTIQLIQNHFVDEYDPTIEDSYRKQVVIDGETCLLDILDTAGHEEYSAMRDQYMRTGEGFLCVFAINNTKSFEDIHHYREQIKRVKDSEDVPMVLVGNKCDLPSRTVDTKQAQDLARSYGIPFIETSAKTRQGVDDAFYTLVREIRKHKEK
Nature of the test: KRas Binding Assay (TR-FRET displacement), KRas Q61H. The note with it: TR-FRET tracer displacement. On the procedure:
as §1, §2

The target of another test is T3, KRas^G13D (Homo sapiens, UniProt P01116, G13D).
T3 construct: corresponding to amino acids 1-169, produced at Accelegan Inc; biotin (biotinylated); purchased Accelegan Inc
T3 sequence (P01116 1-169 isoform P01116-2 G13D): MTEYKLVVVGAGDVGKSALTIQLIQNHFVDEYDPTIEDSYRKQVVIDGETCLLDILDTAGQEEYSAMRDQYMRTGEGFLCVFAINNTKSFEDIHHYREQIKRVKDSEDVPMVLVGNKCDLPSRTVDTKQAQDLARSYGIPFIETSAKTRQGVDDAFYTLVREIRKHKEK
Nature of the test: KRas Binding Assay (TR-FRET displacement), KRas G13D. The note with it: TR-FRET tracer displacement. On the procedure: as §1, §2

The test system of test [1] is KRas-mediated Phosphorylation of ERK in MKN1 cells. Nature of the test: HTRF pERK assay, MKN1 cells. Type of test: cell-based. As to conditions: Homo sapiens, MKN-1, 3 hour compound incubation, read-out: Inhibition (HTRF IC50 nM) of KRas-mediated Phosphorylation of ERK, MKN1. As to the method: Cisbio HTRF Advanced pERK Assay Catalog #64AERPEH • Cells: MKN1, PSN1
(§3) • Day 1: Seed 6,000 cells/well-25 μl/well in 384-well white solid bottom plate; RPM1_10% FBS.

The target in another test is T4, KRas^G12D (Homo sapiens, UniProt P01116, G12D).
T4 construct: corresponding to amino acids 1-169, produced at Accelegan Inc; biotin (biotinylated); purchased Accelegan Inc
T4 sequence (P01116 1-169 isoform P01116-2 G12D): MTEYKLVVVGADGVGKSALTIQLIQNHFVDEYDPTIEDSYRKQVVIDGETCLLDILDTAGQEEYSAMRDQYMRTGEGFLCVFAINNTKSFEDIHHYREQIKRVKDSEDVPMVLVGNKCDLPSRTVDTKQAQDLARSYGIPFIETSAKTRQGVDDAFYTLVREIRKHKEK
Put plainly: KRas Binding Assay (TR-FRET displacement), KRas G12D. As to conditions: TR-FRET tracer displacement. As to the method: as §1, §2

Test [2] has as its system KRas-mediated Phosphorylation of ERK in H727 cells. Put plainly: HTRF pERK assay, H727 cells. Type of test: cell-based. As to conditions: Homo sapiens, NCI-H727, 3 hrs compound incubation, read-out: Inhibition (HTRF IC50 nM) of KRas-mediated Phosphorylation of ERK, H727. As to the method:
as §3
(§4) • 1. To harvest cells from flask using 0.05% Trypsin/EDTA solution. Add 10 mL of media to stop trypsinizing. Pipette the cells into a conical bottom 50 mL centrifuge tube and centrifuge 5 min×1000 rpm. • 2. Re-suspend the cell pellet in media, take a cell count, and then adjust the cell density using fresh media. • 3. Seed 6,000 cells into cell culture plate with 50 μL media. The • 4. Incubate cell plate overnight in a 37° C., 5% CO2 incubator.
(§5) • 1. Use Tecan to complete the compound addition. Compounds start from 10 uM top, 3-fold dilution, and 10 doses. The final DMSO concentration is 0.8%. Dispensed 0.2 uM Trametinib as Min control. • 2. Incubate cell plate for 3 hrs in the incubator. Detection with Cisbio pERK HTRF Kit • 1. Dilute 1 volume of 4× lysis buffer with 3 volumes of deionized water. Then, add 100× the blocking reagent. Keep lysis buffer on the ice. • 2. At the end of the compound treatment, flick-off the media. • 3. Add 35 μL of lysis buffer per well using a Multidrop Combi. Then place on a plate agitator shaking at 300 rpm at 4° C. for 40 mins. • 4. Make up the HTRF antibody buffer. For each assay plate, mix 50 μL of d2-conjugate antibody with 950 μL of detection buffer. Similarly, mix 50 μL of Cryptate antibody with 950 μL of detection buffer. Then mix the two diluted antibodies together. • 5. Dispense 3.4 μL the antibody buffer to wells of an empty assay plate. Seal the plate and centrifuge plate 30 sec×1000 rpm. • 6. At the end of the 4° C. lysis, centrifuge the lysate plates 3 mins×1500 rpm. • 7. Use the Bravo to transfer 13.6 μL of lysate from cell culture plate to assay plate. Then incubate assay plate for 2 hrs at room temperature. • 8. At the end of incubation, read plate on the Envision after centrifuging plate 30 sec×1000 rpm.

In another test the target is T5, KRas^G12S (Homo sapiens, UniProt P01116, G12S).
T5 construct: corresponding to amino acids 1-169, produced at Accelegan Inc; biotin (biotinylated); purchased Accelegan Inc
T5 sequence (P01116 1-169 isoform P01116-2 G12S): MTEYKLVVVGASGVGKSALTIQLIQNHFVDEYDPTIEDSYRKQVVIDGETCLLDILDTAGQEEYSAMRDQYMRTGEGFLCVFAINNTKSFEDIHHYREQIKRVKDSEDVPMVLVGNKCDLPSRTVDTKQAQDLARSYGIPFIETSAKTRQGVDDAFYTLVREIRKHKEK
Nature of the test: KRas Binding Assay (TR-FRET displacement), KRas G12S. The note with it: TR-FRET tracer displacement. As to the method: as §1, §2

The target in a further test is T6, KRas^WT (Homo sapiens, UniProt P01116).
T6 construct: corresponding to amino acids 1-169, produced at Accelegan Inc; biotin (biotinylated); purchased Accelegan Inc
T6 sequence (P01116 1-169 isoform P01116-2): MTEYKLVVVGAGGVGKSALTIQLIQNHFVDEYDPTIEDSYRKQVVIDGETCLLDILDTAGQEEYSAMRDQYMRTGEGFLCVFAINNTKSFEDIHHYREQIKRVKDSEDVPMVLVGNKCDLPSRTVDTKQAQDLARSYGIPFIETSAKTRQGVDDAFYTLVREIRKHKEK
Nature of the test: KRas Binding Assay (TR-FRET displacement), KRas WT. As to conditions: TR-FRET tracer displacement. On the procedure: as §1, §2

Test [3] has as its system KRas-mediated Phosphorylation of ERK in H2009 cells. Nature of the test: HTRF pERK assay, H2009 cells. The note with it: Homo sapiens, NCI-H2009; H2009 cells by column count (c8); may be PSN1; read-out: Inhibition (HTRF IC50 nM) of KRas-mediated Phosphorylation of ERK, H2009. It counts as cell-based.
A further test deals with T7, KRas^G12V (Homo sapiens, UniProt P01116, G12V).
T7 construct: corresponding to amino acids 1-169, produced at Accelegan Inc; biotin (biotinylated); purchased Accelegan Inc
T7 sequence (P01116 1-169 isoform P01116-2 G12V): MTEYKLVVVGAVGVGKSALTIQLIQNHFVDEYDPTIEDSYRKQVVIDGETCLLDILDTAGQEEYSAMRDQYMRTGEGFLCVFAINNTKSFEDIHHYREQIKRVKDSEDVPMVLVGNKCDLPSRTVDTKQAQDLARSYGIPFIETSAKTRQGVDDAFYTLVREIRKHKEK
Put plainly: KRas Binding Assay (TR-FRET displacement), KRas G12V. As to conditions: TR-FRET tracer displacement. As to the method: as §1, §2

The target in another test is T8, KRas^G12C (Homo sapiens, UniProt P01116, G12C).
T8 construct: corresponding to amino acids 1-169, produced at Accelegan Inc; biotin (biotinylated); purchased Accelegan Inc
T8 sequence (P01116 1-169 isoform P01116-2 G12C): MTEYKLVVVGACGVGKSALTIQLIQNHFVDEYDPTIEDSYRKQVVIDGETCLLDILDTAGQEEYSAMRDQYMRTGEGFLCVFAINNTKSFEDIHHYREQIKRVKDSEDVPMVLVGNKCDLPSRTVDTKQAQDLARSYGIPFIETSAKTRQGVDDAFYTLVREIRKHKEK
Put plainly: KRas Binding Assay (TR-FRET displacement), KRas G12C. As to conditions: TR-FRET tracer displacement. As to the method:
as §1, §2

In test [4] the test system is KRas-mediated Phosphorylation of ERK in AsPC-1 cells. Nature of the test: HTRF pERK assay, AsPC-1 cells. It counts as cell-based. The note with it: Homo sapiens, ASPC1, 3 hrs compound incubation, read-out: Inhibition (HTRF IC50 nM) of KRas-mediated Phosphorylation of ERK, AsPC-1. As to the method: as §3, §4, §5
The target of the next test is T9, KRas^G12R (Homo sapiens, UniProt P01116, G12R).
T9 construct: corresponding to amino acids 1-169, produced at Accelegan Inc; biotin (biotinylated); purchased Accelegan Inc
T9 sequence (P01116 1-169 isoform P01116-2 G12R): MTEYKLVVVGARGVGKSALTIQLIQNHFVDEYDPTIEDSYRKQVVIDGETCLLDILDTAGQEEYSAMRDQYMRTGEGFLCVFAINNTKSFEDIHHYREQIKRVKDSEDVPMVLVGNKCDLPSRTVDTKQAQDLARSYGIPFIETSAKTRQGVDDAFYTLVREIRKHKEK
Put plainly: KRas Binding Assay (TR-FRET displacement), KRas G12R. As to conditions: TR-FRET tracer displacement. As to the method: as §1, §2

T1 sequence (P01116 1-169 isoform P01116-2 G12A): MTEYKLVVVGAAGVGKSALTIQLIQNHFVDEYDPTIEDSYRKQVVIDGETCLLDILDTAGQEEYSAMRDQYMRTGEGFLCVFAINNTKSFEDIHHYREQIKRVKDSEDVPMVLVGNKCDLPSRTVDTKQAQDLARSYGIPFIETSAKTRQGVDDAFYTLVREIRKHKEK

Take `C[C@H](Oc1nc(-c2noc(C3(C)CCCc4sc(N)c(C#N)c43)n2)cc(N2CCC[C@@](C)(O)C2)n1)[C@@H]1CCCN1C` (stereo partly drawn) [Example 1, 2-amino-4-(3-(6-((R)-3-hydroxy-3-methylpiperidin-1-yl)-2-((S)-1-((S)-1-methylpyrrolidin-2-yl)ethoxy)pyrimidin-4-yl)-1,2,4-oxadiazol-5-yl)-4-methyl-4,5,6,7-tetrahydrobenzo[b]thiophene-3-carbonitrile]: the IC50 – broadly, the midpoint of a concentration-inhibition curve – on KRas^G12A came to 82 nM; on KRas^Q61H, 117 nM; on KRas^G13D it was 74 nM; in [1] it was 593 nM; on KRas^G12D, 42 nM; in test [2], 6440 nM. Further, the IC50 on KRas^G12S was 90 nM; on KRas^WT it was 22 nM; in test [3], more than 10000 nM; at KRas^G12V it was 43 nM; at KRas^G12C it was 106 nM; in [4], 3740 nM. Besides, the IC50 on KRas^G12R came out at 28 nM.
As for `C[C@H](Oc1nc(-c2noc(C3(C)CCCc4sc(N)c(C#N)c43)n2)cc(N2C[C@H]3CC[C@@H](C2)N3)n1)[C@@H]1CCCN1C` (stereo partly drawn) [Example 3, 4-(3-(6-((1R,5S)-3,8-diazabicyclo[3.2.1]octan-3-yl)-2-((S)-1-((S)-1-methylpyrrolidin-2-yl)ethoxy)pyrimidin-4-yl)-1,2,4-oxadiazol-5-yl)-2-amino-4-methyl-4,5,6,7-tetrahydrobenzo[b]thiophene-3-carbonitrile], the IC50 at KRas^G12A was 879 nM; on KRas^Q61H, 656 nM; at KRas^G13D, 315 nM; in test [1] it was more than 10000 nM; on KRas^G12D, 18 nM; in [2], more than 10000 nM. For the same compound, the IC50 on KRas^G12S was 912 nM; on KRas^WT, 195 nM; in test [3] it was more than 10000 nM; at KRas^G12V it was 767 nM; on KRas^G12C, 1060 nM; in test [4] it was 5940 nM. Also, on KRas^G12R, the IC50 came to 728 nM.

(Values after US20260015344A1, “PAN-KRAS INHIBITORS” (Mirati Therapeutics, Inc., priority 2022, published 2026).)
